From paper PMC5520972 (Cancer chemotherapy and pharmacology, 2017)

Experiments:
AAG and albumin = settings: bound to both AAG and albumin; cited from earlier work
[1] = Safety and tolerability, dose-limiting toxicities; assay type: in vivo, human; settings: for Dose-limiting toxicity, hyperbilirubinemia (number of patients): days 1–8
HCC = test: Response assessment; assay type: in vivo, human; settings: of 11 HCC patients; 3 based solely on symptomatic deterioration
[2] = cited from earlier work

CS(=O)(=O)c1ccc(C(=O)Nc2ccc(Cl)c(-c3ccccn3)c2)c(Cl)c1 [vismodegib]
Percentage of dose excreted in urine over a 24-h interval (all patients, regardless of hepatic function, day 8): < 1% | Renal clearance (CLR) (patients with hepatic impairment compared to normal hepatic function): lower | Plasma protein bound (AAG and albumin): greater than 98% | AEs grade 3 or 4 in severity ([1]; all cohorts): 67.7% | Total patients who experienced DLTs of hyperbilirubinemia ([1]; all cohorts, 31 patients): three | Patients who experienced at least one AE ([1]; all groups, 31 patients): 96.8% | Adverse event frequency: abdominal pain ([1]; all patients): 22.6% | Adverse event frequency: decreased appetite ([1]; all patients): 22.6% | Adverse event frequency: dysgeusia ([1]; all patients): 22.6% | Adverse event frequency: fatigue ([1]; all patients): 67.7% | Adverse event frequency: muscle spasms ([1]; all patients): 22.6% | Adverse event frequency: nausea ([1]; all patients): 35.5% | Adverse event frequency: vomiting ([1]; all patients): 22.6% | Serious AE: abdominal pain ([1]; all patients (2 patients)): 6.5% | Serious AE: hyperbilirubinemia ([1]; all patients (2 patients)): 6.5% | Serious AE: upper gastrointestinal hemorrhage ([1]; all patients (2 patients)): 6.5% | Patients who experienced serious AEs ([1]; all patients (16 patients)): 51.6% | AEs grade 3 or 4 in severity ([1]; control cohort): 44.4% | AEs grade 3 or 4 in severity ([1]; mild cohort): 75% | Patients who experienced serious AEs ([1]; mild cohort (4 patients)): 50% | Adverse events leading to withdrawal of vismodegib: intracranial bleed ([1]; mild cohort n = 8): 1 (intracranial bleed) | Deaths due to progression of disease (number of patients) ([1]; mild cohort n = 8): 1 | Dose-limiting toxicity, hyperbilirubinemia (number of patients) ([1]; mild cohort n = 8, oral 150 mg daily): 0 | AEs grade 3 or 4 in severity ([1]; moderate cohort): 87.5% | Patients who experienced serious AEs ([1]; moderate cohort (6 patients)): 75% | Adverse events leading to withdrawal of vismodegib: GI bleeds ([1]; moderate cohort n = 8): 2 | Adverse events leading to withdrawal of vismodegib: hyperbilirubinemia ([1]; moderate cohort n = 8): 1 | Deaths due to progression of disease (number of patients) ([1]; moderate cohort n = 8): 3 | Patients who experienced serious AEs ([1]; normal cohort (3 patients)): 33.3% | Adverse events leading to withdrawal of vismodegib ([1]; normal cohort n = 9): 0 | Deaths due to progression of disease (number of patients) ([1]; normal cohort n = 9): 0 | Dose-limiting toxicity, hyperbilirubinemia (number of patients) ([1]; normal cohort n = 9, oral 150 mg daily): 0 | AEs grade 3 or 4 in severity ([1]; severe cohort): 66.7% | Patients who experienced serious AEs ([1]; severe cohort (3 patients)): 50% | Adverse events leading to withdrawal of vismodegib: fatigue ([1]; severe cohort n = 6): 1 | Adverse events leading to withdrawal of vismodegib: hyperbilirubinemia ([1]; severe cohort n = 6): 2 | Adverse events leading to withdrawal of vismodegib: hyponatremia ([1]; severe cohort n = 6): 1 | Adverse events leading to withdrawal of vismodegib: leukocytosis ([1]; severe cohort n = 6): 1 | Deaths due to progression of disease (number of patients) ([1]; severe cohort n = 6): 1 | HCC patients with progressive disease (HCC): nine | Cmax interpatient coefficient of variation [2]: ~37.4% | PK variability explained by AAG levels [2]: > 70%
